Test results from patent US9145415B2, “Nitrogen-containing heterocyclic compound or salt thereof” (FUJIFILM Corporation, priority 2012, dated 2015).
Read-outs that look alike come from different tables or passages of the source.

What was measured:
[1] = target: T1, human FLT3 protein (FLT3 (WT)) (Homo sapiens, UniProt P36888); experiment: FLT3 inhibition test (FLT3 enzyme inhibition, time-resolved fluorescence of substrate peptide phosphorylation); format: biochemical; settings: read-out: FLT3 (WT) enzyme inhibition activity
T1 construct: human FLT3 protein (intracellular region, 564 to 993 aa); GST; purchased Carna Biosciences; host or cells: baculovirus expression system
T1 sequence (P36888 564-993): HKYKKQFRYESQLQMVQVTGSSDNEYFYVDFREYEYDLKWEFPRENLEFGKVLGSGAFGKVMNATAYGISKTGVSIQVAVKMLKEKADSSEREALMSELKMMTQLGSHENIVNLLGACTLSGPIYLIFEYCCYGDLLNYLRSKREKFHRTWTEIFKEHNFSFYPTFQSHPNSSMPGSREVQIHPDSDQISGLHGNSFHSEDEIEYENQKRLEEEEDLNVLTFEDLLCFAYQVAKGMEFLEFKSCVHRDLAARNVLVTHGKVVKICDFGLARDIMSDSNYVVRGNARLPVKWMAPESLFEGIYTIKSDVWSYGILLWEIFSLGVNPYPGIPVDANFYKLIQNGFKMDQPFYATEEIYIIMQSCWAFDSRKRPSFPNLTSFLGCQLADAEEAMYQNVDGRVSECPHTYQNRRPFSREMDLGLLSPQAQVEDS
Method in brief: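 Wild-type human FLT3 (1.2 μg) pre-incubated with compound 15 min at 25° C in 100 mM HEPES pH 7.5, 10 mM MgCl2, 25 mM NaCl, 1 mM DTT. Reaction started with substrate peptide and ATP (final 50 μM), run 30 min at 25° C; phosphorylation read by time-resolved fluorescence.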

Molm-13 cells = experiment: Leukemia cell proliferation inhibition test (ATPlite), Molm-13; format: cell-based; settings: Homo sapiens, read-out: MOLM13 cell proliferation inhibition effect
Method in brief: (§1)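 Proliferation inhibition is quantified from total cellular ATP, measured by luciferase luminescence, after cells grow with compound for 72 hours. The GI50 is the concentration giving half the signal of the 0.1% DMSO control, fitted to a sigmoid curve from duplicate points.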

MV4-11 cells = experiment: Leukemia cell proliferation inhibition test (ATPlite), MV4-11; format: cell-based; settings: Homo sapiens, read-out: MV4-11 cell proliferation inhibition effect
Method in brief: as §1

[2] = GST-fused human FLT3 (564 to 993 aa), ATP 50 μM
[3] = MOLM-13, 72 h, Molm-13, 72 hours culture, ATPlite, GI50 per method
[4] = MV4-11, 72 h, MV4-11, 72 hours culture, ATPlite, GI50 per method

IC50 [1, 2] [nM]	IC50 (Molm-13 cells; [3]) [nM]	IC50 (MV4-11 cells; [4]) [nM]	IC50 ([1]; FLT3 (WT)) [nM]	IC50 (Molm-13 cells; MOLM-13, MOLM13 cell) [nM]	IC50 (MV4-11 cells; MV4-11, MV4-11 cell) [nM]	Structure (SMILES)
< 10	< 10	< 10				C[C@@H](C(=O)NCCCC#Cc1cnc(Nc2ccc3cn[nH]c3c2)nc1NC1CC1)N(C)C(=O)/C=C/CN(C)C [Compound 10-73]
< 10	< 10	< 10				CCCNc1nc(Nc2ccc(C#N)cc2)ncc1C#CCCCNC(=O)[C@@H]1C[C@@H](F)CN1C(=O)/C=C/CN(C)C [Compound 7-48]
< 10	< 10	< 10				CNc1nc(Nc2cccc(F)c2)ncc1C#C[C@@H]1CCC[C@H](NC(=O)[C@H](C)N(C)C(=O)/C=C/CN(C)C)C1 [Compound 15-6]
< 10	< 10	< 10				CCCNc1nc(Nc2ccc(C#N)cc2)ncc1C#CCCCNC(C)(C)CN(C)C(=O)/C=C/CN(C)C [Compound 8-11]
< 10	< 10	< 10				CCCNc1nc(Nc2ccc(C#N)cc2)ncc1C#C[C@H]1CC[C@H](NC(=O)[C@H](C)N(C)C(=O)/C=C/CN(C)C)C1 [Compound 13-12]
< 10	< 10	< 10				CCNc1nc(Nc2ccc3c(cnn3C)c2)ncc1C#CCCCNC(=O)[C@H](C)N(C)C(=O)/C=C/CN(C)C [Compound 10-53]
< 10	100 to 1000	10 to 100				CCCNc1nc(Nc2ccc(C(N)=O)cc2)ncc1-c1ccc(CNC(=O)CNC(=O)/C=C/CN(C)C)cc1 [Compound 16-2]
< 10	10 to 100	< 10				CCCNc1nc(Nc2cccc(OC(F)(F)F)c2)ncc1C#CCCCNC(=O)[C@H](C)N(C)C(=O)/C=C/CN(C)C [Compound 11-10]
< 10	10 to 100	10 to 100				C=CC(=O)N[C@H](C)C(=O)Nc1cccc(NC(=O)c2cnc(NCCc3ccncc3)nc2NCCC)c1 [Compound 2-3]
< 10	10 to 100	10 to 100				C=CC(=O)N1CCC(NC(=O)c2cnc(NCCc3ccncc3)nc2NCCC)CC1 [Compound 6-18]
< 10	< 10	< 10				CCNc1nc(Nc2cccc(F)c2)ncc1C#C[C@@H]1CCC[C@H](NC(=O)[C@H](C)N(C)C(=O)/C=C/CN(C)C)C1 [Compound 21-27]
< 10	< 10	< 10				C[C@@H](C(=O)NCCCC#Cc1cnc(Nc2ccc(F)nc2)nc1NCC(F)(F)F)N(C)C(=O)/C=C/CN(C)C [Compound 10-33]
< 10	10 to 100	10 to 100				CCCNc1nc(Nc2cccc(F)c2)ncc1C#CCCCNC(=O)[C@H](CCC)N(C)C(=O)/C=C/CN(C)C [Compound 7-18]
< 10	< 10	< 10				CCCNc1nc(Nc2cnc3ccc(OC)cc3c2)ncc1C#CCCCNC(=O)[C@H](C)N(C)C(=O)/C=C/CN(C)C [Compound 21-16]
< 10	< 10	< 10				CCCNc1nc(Nc2ccc(C#N)cc2)ncc1C#CCCCNC(=O)CN(CC)C(=O)/C=C/CN(C)C [Compound 7-39]
< 10	10 to 100	10 to 100				C[C@@H](C(=O)NCCCC#Cc1cnc(Nc2ccc(C#N)cc2)nc1-n1cncn1)N(C)C(=O)/C=C/CN(C)C [Compound 20-4]
< 10	< 10	< 10				CCCN(CCC)c1nc(Nc2cccc(F)c2)ncc1C#CCCCNC(=O)[C@H](C)N(C)C(=O)/C=C/CN(C)C [Compound 10-10]
10 to 100	< 10	< 10				CCCNc1nc(Nc2ccc(C(=O)N(C)C)cc2)ncc1C#CCCCNC(=O)[C@H](C)N(C)C(=O)/C=C/CN(C)C [Compound 7-15]

IC50 [1, 2] [nM]	IC50 (Molm-13 cells; [3]) [nM]	IC50 (MV4-11 cells; [4]) [nM]	IC50 ([1]; FLT3 (WT)) [nM]	IC50 (Molm-13 cells; MOLM-13, MOLM13 cell) [nM]	IC50 (MV4-11 cells; MV4-11, MV4-11 cell) [nM]	Structure (SMILES)
< 10	10 to 100	10 to 100				C=CC(=O)N[C@@H](C)C(=O)Nc1cccc(NC(=O)c2cnc(NCCc3ccncc3)nc2NCCC)c1 [Compound 1-1, (S)—N-(3-(2-(acrylylamido)propanamido)phenyl)-4-(propylamino)-2-((2-(pyridin-4-yl)ethyl)amino)pyrimidine-5-carboxamide]
< 10	< 10	< 10				C[C@@H](C(=O)NCCCC#Cc1cnc(Nc2ccc(C#N)cc2)nc1NC1CCC1)N(C)C(=O)/C=C/CN(C)C [Compound 10-47]
< 10	< 10	< 10				C[C@@H](C(=O)NCCCC#Cc1cnc(Nc2cccc(F)c2)nc1NC1=CC2C=CC=NC2C=C1)N(C)C(=O)/C=C/CN(C)C (stereo partly drawn) [Compound 7-7]
< 10	< 10	< 10				C[C@@H](C(=O)NCCCC#Cc1cnc(Nc2ccc(C#N)cc2)nc1NC1CCCC1)N(C)C(=O)/C=C/CN(C)C [Compound 10-48]
< 10	< 10	< 10				CCCNc1nc(Nc2ccnc(F)c2)ncc1C#CCCCNC(=O)[C@H](CC)N(C)C(=O)/C=C/CN(C)C [Compound 9-18]
			< 10	< 10	< 10	CCCNc1nc(Nc2cnc3c(cnn3CCOC)c2)ncc1C#CCCCNC(=O)[C@H](C)N(C)C(=O)/C=C/CN(C)C [Compound 22-40]
< 10	< 10	< 10				COCCCNc1nc(Nc2ccc(C#N)cc2)ncc1C#CCCCNC(=O)[C@H](C)N(C)C(=O)/C=C/CN(C)C [Compound 10-49]
			< 10	< 10	< 10	CCCNc1nc(Nc2ncc(C#N)s2)ncc1C#CCCCNC(=O)[C@H](C)N(C)C(=O)/C=C/CN(C)C [Compound 22-22]
< 10	< 10	< 10				CNc1nc(Nc2ccc(C#N)cc2)ncc1C#C[C@@H]1CCC[C@H](NC(=O)[C@H](C)N(C)C(=O)/C=C/CN(C)C)C1 [Compound 15-5, (E)-N—((S)-1-(((1S,3R)-3-((2-((4-Cyanophenyl)amino)-4-(methylamino)pyrimidin-5-yl)ethynyl)cyclohexyl)amino)-1-oxopropan-2-yl)-4-(dimethylamino)-N-methyl-2-butenamide]
< 10	100 to 1000	10 to 100				CCCNc1nc(NCCc2ccncc2)ncc1C(=O)Nc1cccc(NC(=O)CNC(=O)/C=C/CN2CCN(CCO)CC2)c1 [Compound 2-16]
< 10	< 10	< 10				CNc1nc(Nc2cccc(C#N)c2)ncc1C#C[C@H]1C[C@@H](NC(=O)[C@H](C)N(C)C(=O)/C=C/CN(C)C)C1 [Compound 13-15, (E)-N—((S)-1-(((1S,3R)-3-((2-((3-Cyanophenyl)amino)-4-(methylamino)pyrimidin-5-yl)ethynyl)cyclobutyl)amino)-1-oxopropan-2-yl)-4-(dimethylamino)-N-methyl-2-butenamide]
< 10	< 10	< 10				CCCNc1nc(Nc2ccnc(F)c2)ncc1C#C[C@@H]1CCC[C@H](NC(=O)[C@H](C)N(C)C(=O)/C=C/CN(C)C)C1 [Compound 14-1, (E)-4-(dimethylamino)-N—((S)-1-(((1S,3R)-3-((2-((2-fluoropyridin-4-yl)amino)-4-(propylamino)pyrimidin-5-yl)ethynyl)cyclohexyl)amino)-1-oxopropan-2-yl)-N-methyl-2-butenamido]
			< 10	< 10	< 10	CCCNc1nc(Nc2ccc3c(c2)c(OC)nn3C)ncc1C#CCCCNC(=O)[C@@H]1CCCN1C(=O)/C=C/CN(C)C [Compound 22-30]
			< 10	< 10	< 10	CCCNc1nc(Nc2ccc3c(OC)n[nH]c3c2)ncc1C#CCCCNC(=O)[C@@H]1CCCN1C(=O)/C=C/CN(C)C [Compound 22-68]
< 10	< 10	< 10				CCCNc1nc(Nc2ccc(C(N)=O)cc2)ncc1C(=O)Nc1cccc(NC(=O)[C@H](C)N(C)C(=O)/C=C/CN(C(C)C)C(C)C)c1 [Compound 4-7]
			< 10	< 10	< 10	CCCNc1nc(Nc2ccc3nccnc3c2)ncc1C#CCCCNC(=O)[C@H](C)N(C)C(=O)/C=C/CN(C)C [Compound 22-4]
< 10	10 to 100	10 to 100				C[C@@H](C(=O)NCCCC#Cc1cnc(Nc2ccc(F)nc2)nc1N1CCCC1)N(C)C(=O)/C=C/CN(C)C [Compound 11-8]
10 to 100	100 to 1000	10 to 100				C[C@@H](C(=O)NCCCC#Cc1cnc(Nc2cccc(F)n2)nc1NC1CC1)N(C)C(=O)/C=C/CN(C)C [Compound 9-23]
